Test results: US10765114B2, “4-amino-6-(pyridyl and 2-substitutedphenyl)-picolinates and 6-amino-2-(pyridyl and 2-substitutedphenyl)-pyrimidine-4-carboxylates and their use as herbicides” (Dow AgroSciences LLC, priority 2013, dated 2020)

Tests used:
Assay in all cases: Post-Emergent Test III (Wheat and Barley)
SASKR (Russian thistle) = format: in vivo, Salsola tragus; conditions: for Visual Growth Reduction (%) 21 Days After Application, SASKR: postemergence
Description: (§1) Seeds of the desired test plant species were planted in Sun Gro MetroMix® 306 planting mixture, which typically has a pH of 6.0 to 6.8 and an organic matter content of about 30 percent, in plastic pots with a surface area of 103.2 square centimeters (cm^2). When required to ensure good germination and healthy plants, a fungicide treatment and/or other chemical or physical treatment was applied. The plants were grown for 7-36 days in a greenhouse with an approximate 14 h photoperiod which was maintained at about 18° C. during the day and 17° C. during the night. Nutrients and water were added on a regular basis and supplemental lighting was provided with overhead metal halide 1000-Watt lamps as necessary. The plants were employed for testing when they reached the second or third true leaf stage.
(§2) A weighed amount, determined by the highest rate to be tested, of each test compound was placed in a 25 mL glass vial and was dissolved in 4 mL of a 97:3 v/v mixture of acetone and DMSO to obtain concentrated stock solutions. […] The concentrated stock solutions obtained were diluted with 20 mL of an aqueous mixture containing acetone, water, isopropyl alcohol, DMSO, Agri-Dex crop oil concentrate, and X-77 surfactant in a 48:39:10:1.5:1.5:0.02 v/v ratio to obtain spray solutions containing the highest application rates. Additional application rates were obtained by serial dilution of 12 mL of the high rate solution into a solution containing 2 mL of 97:3 v/v mixture of acetone and DMSO and 10 mL of an aqueous mixture containing acetone, water, isopropyl alcohol, DMSO, Agri-Dex crop oil concentrate, and X-77 surfactant in a 48:39:10:1.5:1.5:0.02 v/v ratio to obtain ½×, ¼×, ⅛× and 1/16× rates of the high rate. Compound requirements are based upon a 12 mL application volume at a rate of 187 liters per hectare (L/ha). Formulated compounds were applied to the plant material with an overhead Mandel track sprayer equipped with 8002E nozzles calibrated to deliver 187 L/ha over an application area of 0.503 square meters at a spray height of 18 inches (43 cm) above the average plant canopy height. Control plants were sprayed in the same manner with the solvent blank.
(§3) The treated plants and control plants were placed in a greenhouse as described above and watered by subirrigation to prevent wash-off of the test compounds. After 21 dAYS, the condition of the test plants as compared with that of the untreated plants was determined visually and scored on a scale of 0 to 100 percent where 0 corresponds to no injury and 100 corresponds to complete kill and presented as indicated in Table A.
(§4) By applying the well-accepted probit analysis as described by J. Berkson in Journal of the American Statistical Society, 48, 565 (1953) and by D. Finney in “Probit Analysis” Cambridge University Press (1952), herbicidal injury of a specific compound at various rates can be used to calculate GR10, GR20, GR50, GR80 and GR90 values, which are defined as growth reduction factors that correspond to the effective dose of herbicide required to provide plant growth reduction (GR) of 10 percent, 20 percent, 50 percent, 80 percent and 90 percent, respectively. Probit analysis was applied to data collected from multiple dose rates of individual compounds utilizing the procedures explained in the following examples. The analysis of those dose rates is captured in the following tables.

APESV (windgrass) = format: in vivo, Apera spica-venti
Description: as §1, §2, §3, §4

PAPRH (common poppy) = format: in vivo, Papaver rhoeas; conditions: for Visual Growth Reduction (%) 21 Days After Application, PAPRH: postemergence
Description: as §1, §2, §3, §4

POLCO (wild buckwheat) = format: in vivo, Polygonum convolvulus; conditions: for Visual Growth Reduction (%) 21 Days After Application, POLCO: postemergence
Description: as §1, §2, §3, §4

KCHSC (kochia) = format: in vivo, Kochia scoparia
How it was run: (§5)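 GR10-GR90 values were derived by probit analysis of visual injury (0 = no injury, 100 = complete kill versus untreated), rated 21 days after spraying. Two- to three-true-leaf plants were sprayed at 187 L/ha with serial rates (1× to 1/16×) in aqueous acetone/isopropanol/DMSO with crop oil and X-77. Greenhouse conditions were 18 °C day/17 °C night.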

TRZSS = format: in vivo
How it was run: as §5

HORSS = format: in vivo
How it was run: as §5

[1] = system: VERPE (Persian speedwell); format: in vivo, Veronica persica; conditions: for Visual Growth Reduction (%) 21 Days After Application, VERPE: postemergence
Description: as §1, §2, §3, §4

[2] = effective dose for growth reduction of 50 percent, probit analysis
[3] = effective dose for growth reduction of 80 percent, probit analysis
[4] = effective dose for growth reduction of 90 percent, probit analysis
[5] = effective dose for growth reduction of 10 percent, probit analysis
[6] = effective dose for growth reduction of 20 percent, probit analysis

## Cc1c(-c2cc(N)c(Cl)c(C(=O)O)n2)ccc(Cl)c1F [Compound 52]
SASKR (Russian thistle); 35 g ai/ha
  Visual Growth Reduction (%) 21 Days After Application, SASKR: D (60-74)
SASKR (Russian thistle); 70 g ai/ha
  Visual Growth Reduction (%) 21 Days After Application, SASKR: D (60-74)
SASKR (Russian thistle); 140 g ai/ha
  Visual Growth Reduction (%) 21 Days After Application, SASKR: C (75-84)
SASKR (Russian thistle); [2]
  GR50, SASKR: 1 g ai/ha
SASKR (Russian thistle); [3]
  GR80, SASKR: >140 g ai/ha
SASKR (Russian thistle); [4]
  GR90, SASKR: >140 g ai/ha
APESV (windgrass); Apera spica-venti, post-emergence, 504 h, 35 g ai/ha, postemergence, read-out: Visual Growth Reduction (%) 21 Days After Application, APESV
  pest or weed control at 35 g/ha: 60 to 74%
APESV (windgrass); Apera spica-venti, post-emergence, 504 h, 70 g ai/ha, postemergence, read-out: Visual Growth Reduction (%) 21 Days After Application, APESV
  pest or weed control at 70 g/ha: 75 to 84%
APESV (windgrass); Apera spica-venti, post-emergence, 504 h, 140 g ai/ha, postemergence, read-out: Visual Growth Reduction (%) 21 Days After Application, APESV
  pest or weed control at 140 g/ha: 85 to 94%
APESV (windgrass); [2]
  GR50, APESV: 23 g ai/ha
APESV (windgrass); [3]
  GR80, APESV: 63 g ai/ha
APESV (windgrass); [4]
  GR90, APESV: 107 g ai/ha
PAPRH (common poppy); 35 g ai/ha
  Visual Growth Reduction (%) 21 Days After Application, PAPRH: D (60-74)
PAPRH (common poppy); 70 g ai/ha
  Visual Growth Reduction (%) 21 Days After Application, PAPRH: D (60-74)
PAPRH (common poppy); 140 g ai/ha
  Visual Growth Reduction (%) 21 Days After Application, PAPRH: C (75-84)
PAPRH (common poppy); [2]
  GR50, PAPRH: 4 g ai/ha
PAPRH (common poppy); [3]
  GR80, PAPRH: >140 g ai/ha
PAPRH (common poppy); [4]
  GR90, PAPRH: >140 g ai/ha
POLCO (wild buckwheat); 35 g ai/ha
  Visual Growth Reduction (%) 21 Days After Application, POLCO: D (60-74)
POLCO (wild buckwheat); 70 g ai/ha
  Visual Growth Reduction (%) 21 Days After Application, POLCO: C (75-84)
POLCO (wild buckwheat); 140 g ai/ha
  Visual Growth Reduction (%) 21 Days After Application, POLCO: A (95-100)
POLCO (wild buckwheat); [2]
  GR50, POLCO: 10 g ai/ha
POLCO (wild buckwheat); [3]
  GR80, POLCO: 41 g ai/ha
POLCO (wild buckwheat); [4]
  GR90, POLCO: 84 g ai/ha
KCHSC (kochia); Bassia scoparia, post-emergence, 504 h, 35 g ai/ha, postemergence, read-out: Visual Growth Reduction (%) 21 Days After Application, KCHSC
  pest or weed control at 35 g/ha: 95 to 100%
KCHSC (kochia); Bassia scoparia, post-emergence, 504 h, 70 g ai/ha, postemergence, read-out: Visual Growth Reduction (%) 21 Days After Application, KCHSC
  pest or weed control at 70 g/ha: 95 to 100%
KCHSC (kochia); Bassia scoparia, post-emergence, 504 h, 140 g ai/ha, postemergence, read-out: Visual Growth Reduction (%) 21 Days After Application, KCHSC
  pest or weed control at 140 g/ha: 95 to 100%
KCHSC (kochia); [2]
  GR50, KCHSC: 1 g ai/ha
KCHSC (kochia); [3]
  GR80, KCHSC: 3 g ai/ha
KCHSC (kochia); [4]
  GR90, KCHSC: 9 g ai/ha
TRZSS; Triticum aestivum, post-emergence, 504 h, 35 g ai/ha, postemergence, read-out: Visual Growth Reduction (%) 21 Days After Application, TRZSS
  pest or weed control at 35 g/ha: 60 to 74%
TRZSS; Triticum aestivum, post-emergence, 504 h, 70 g ai/ha, postemergence, read-out: Visual Growth Reduction (%) 21 Days After Application, TRZSS
  pest or weed control at 70 g/ha: 75 to 84%
TRZSS; Triticum aestivum, post-emergence, 504 h, 140 g ai/ha, postemergence, read-out: Visual Growth Reduction (%) 21 Days After Application, TRZSS
  pest or weed control at 140 g/ha: 75 to 84%
TRZSS; [5]
  GR10, TRZSS: 1 g ai/ha
TRZSS; [6]
  GR20, TRZSS: 1 g ai/ha
HORSS; Hordeum vulgare, post-emergence, 504 h, 35 g ai/ha, postemergence, read-out: Visual Growth Reduction (%) 21 Days After Application, HORSS
  pest or weed control at 35 g/ha: 60 to 74%
HORSS; Hordeum vulgare, post-emergence, 504 h, 70 g ai/ha, postemergence, read-out: Visual Growth Reduction (%) 21 Days After Application, HORSS
  pest or weed control at 70 g/ha: 75 to 84%
HORSS; Hordeum vulgare, post-emergence, 504 h, 140 g ai/ha, postemergence, read-out: Visual Growth Reduction (%) 21 Days After Application, HORSS
  pest or weed control at 140 g/ha: 85 to 94%
HORSS; [5]
  GR10, HORSS: 1 g ai/ha
HORSS; [6]
  GR20, HORSS: 2 g ai/ha
[1]; 35 g ai/ha
  Visual Growth Reduction (%) 21 Days After Application, VERPE: G (0-29)
[1]; 70 g ai/ha
  Visual Growth Reduction (%) 21 Days After Application, VERPE: G (0-29)
[1]; 140 g ai/ha
  Visual Growth Reduction (%) 21 Days After Application, VERPE: E (45-59)
[1]; [2]
  GR50, VERPE: >140 g ai/ha
[1]; [3]
  GR80, VERPE: >140 g ai/ha
[1]; [4]
  GR90, VERPE: >140 g ai/ha
